Data taken from the NIST ThermoML archive (doi:10.1021/je101361u).
± gives the expanded uncertainty stated by the source.

Assay: xn = mol fraction of the nth substance listed
Details: 101.3 kPa, Liquid

COCCOC [1,2-dimethoxyethane] + ClCCCl
mass density [kg/m3]
Details	308.15 K	313.15 K	318.15 K	323.15 K	328.15 K	333.15 K
x2 = 0.0251	–	852.25 ± 0.53	846.59 ± 0.53	840.89 ± 0.54	835.13 ± 0.55	829.32 ± 0.55
x2 = 0.05	–	859.77 ± 0.51	854.09 ± 0.52	848.36 ± 0.52	842.55 ± 0.53	836.72 ± 0.54
x2 = 0.0501	–	859.82 ± 0.51	854.13 ± 0.52	848.39 ± 0.52	842.6 ± 0.53	836.76 ± 0.54
x2 = 0.075	–	867.42 ± 0.5	861.7 ± 0.5	855.93 ± 0.51	850.11 ± 0.52	844.24 ± 0.52
x2 = 0.1	–	875.11 ± 0.49	869.35 ± 0.49	863.55 ± 0.5	857.7 ± 0.51	851.8 ± 0.51
x2 = 0.1552	–	892.54 ± 0.46	886.71 ± 0.46	880.84 ± 0.47	874.92 ± 0.48	868.95 ± 0.48
x2 = 0.2001	–	906.96 ± 0.43	901.08 ± 0.44	895.15 ± 0.44	889.17 ± 0.45	883.15 ± 0.46
x2 = 0.2501	–	923.37 ± 0.4	917.42 ± 0.41	911.42 ± 0.42	905.37 ± 0.42	899.27 ± 0.43
x2 = 0.3002	–	940.18 ± 0.38	934.15 ± 0.38	928.08 ± 0.39	921.97 ± 0.4	915.79 ± 0.4
x2 = 0.35	–	957.24 ± 0.35	951.14 ± 0.36	945 ± 0.37	938.81 ± 0.37	932.56 ± 0.38
x2 = 0.4001	–	974.8 ± 0.33	968.62 ± 0.33	962.41 ± 0.34	956.14 ± 0.35	949.82 ± 0.35
x2 = 0.45	–	992.71 ± 0.31	986.46 ± 0.31	980.16 ± 0.32	973.82 ± 0.32	967.42 ± 0.33
x2 = 0.5	1017.36 ± 0.32	1011.06 ± 0.31	1004.73 ± 0.3	998.35 ± 0.3	991.93 ± 0.3	985.45 ± 0.31
x2 = 0.5001	1017.45 ± 0.32	1011.16 ± 0.31	1004.83 ± 0.3	998.45 ± 0.3	992.02 ± 0.3	985.53 ± 0.31
x2 = 0.55	1036.29 ± 0.34	1029.91 ± 0.33	1023.49 ± 0.32	1017.03 ± 0.31	1010.51 ± 0.3	1003.94 ± 0.3
x2 = 0.6001	1055.67 ± 0.36	1049.2 ± 0.35	1042.69 ± 0.34	1036.13 ± 0.33	1029.53 ± 0.32	1022.87 ± 0.32
x2 = 0.65	1075.5 ± 0.38	1068.94 ± 0.37	1062.34 ± 0.36	1055.68 ± 0.35	1048.98 ± 0.35	1042.24 ± 0.34
x2 = 0.7	1095.88 ± 0.41	1089.21 ± 0.4	1082.51 ± 0.39	1075.76 ± 0.38	1068.97 ± 0.37	1062.12 ± 0.36
x2 = 0.75	1116.88 ± 0.43	1110.11 ± 0.42	1103.31 ± 0.41	1096.45 ± 0.4	1089.55 ± 0.39	1082.61 ± 0.38
x2 = 0.8	1138.31 ± 0.46	1131.44 ± 0.45	1124.52 ± 0.44	1117.56 ± 0.43	1110.55 ± 0.42	1103.5 ± 0.41
x2 = 0.85	1160.61 ± 0.49	1153.62 ± 0.48	1146.58 ± 0.47	1139.51 ± 0.46	1132.39 ± 0.45	1125.22 ± 0.44
x2 = 0.9	1183.44 ± 0.51	1176.32 ± 0.5	1169.16 ± 0.49	1161.97 ± 0.48	1154.73 ± 0.47	1147.44 ± 0.46
x2 = 0.925	1195 ± 0.53	1187.82 ± 0.52	1180.61 ± 0.51	1173.35 ± 0.5	1166.05 ± 0.49	1158.7 ± 0.48
x2 = 0.975	1218.9 ± 0.56	1211.59 ± 0.55	1204.25 ± 0.54	1196.86 ± 0.53	1189.43 ± 0.52	1181.97 ± 0.51
